In US20240226106A1, “INHIBITORS OF PLASMA KALLIKREIN” (SHIRE HUMAN GENETIC THERAPIES, INC., priority 2021, published 2024):

target: human activated kallikrein enzyme (Homo sapiens, UniProt P03952); assay: Inhibition of human activated plasma kallikrein, fluorogenic peptide substrate (PFR-AMC), 500 pM enzyme format; type: biochemical; settings: 500 pM activated kallikrein, 30 min preincubation, 10 min reaction, room temperature, read-out: Primary Dose Response Assay: Average EC50
Method: Compounds were evaluated for inhibition of the human activated kallikrein enzyme in two formats of an assay employing a fluorogenic peptide substrate. In one assay format, the concentrations of reagents were as follows: 20 mM Tris pH 7.5, 1 mM EDTA, 150 mM sodium chloride, 0.1% PEG-400, 0.1% Triton X-100, 500 pM activated kallikrein enzyme, […] Pro-Phe-Arg-7-amido-4-methylcoumarin (PFR-AMC) substrate. Prior to reaction initiation with substrate, enzyme and inhibitors were preincubated for 30 min at room temperature. After initiation with substrate, reactions were incubated for 10 min at room temperature and fluorescence emission at 460 nm from 380 nm excitation measured with a microplate reader. In another assay format, the concentrations of reagents were as follows: 20 mM Tris pH 7.5, 1 mM EDTA, 150 mM sodium chloride, 0.1% PEG-400, 0.1% Triton X-100, 5 pM activated kallikrein enzyme, 300 uM PFR-AMC substrate. Prior to reaction initiation with substrate, enzyme and inhibitors were preincubated for 30 min at room temperature. After initiation with substrate, reactions were incubated for 18 hr at room temperature and fluorescence emission at 460 nm from 380 nm excitation measured with a microplate reader.

human activated kallikrein enzyme, sequence (P03952 391-638 limits assumed): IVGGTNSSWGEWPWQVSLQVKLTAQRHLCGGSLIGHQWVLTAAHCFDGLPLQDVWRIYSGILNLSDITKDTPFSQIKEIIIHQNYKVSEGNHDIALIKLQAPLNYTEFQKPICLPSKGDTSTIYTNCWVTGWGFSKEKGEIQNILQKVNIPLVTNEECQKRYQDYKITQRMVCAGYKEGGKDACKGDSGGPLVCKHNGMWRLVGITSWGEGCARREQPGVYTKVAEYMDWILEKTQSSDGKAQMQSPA
human activated kallikrein enzyme, sequence (P03952 20-390 partner limits assumed): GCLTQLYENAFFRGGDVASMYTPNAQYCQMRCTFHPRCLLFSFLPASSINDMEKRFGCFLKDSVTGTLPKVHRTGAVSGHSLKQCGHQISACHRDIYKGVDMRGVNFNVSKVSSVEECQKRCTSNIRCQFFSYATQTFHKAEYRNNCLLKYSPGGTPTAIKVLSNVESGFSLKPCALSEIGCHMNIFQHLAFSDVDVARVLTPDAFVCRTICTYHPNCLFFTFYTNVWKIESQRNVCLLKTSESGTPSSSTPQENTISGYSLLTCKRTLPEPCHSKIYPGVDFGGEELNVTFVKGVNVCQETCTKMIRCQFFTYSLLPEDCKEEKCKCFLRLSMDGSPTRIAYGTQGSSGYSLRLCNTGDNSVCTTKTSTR

Compound	EC50 [nM]
Cc1ccnc([C@H]2C[C@@H]2C(=O)Nc2cc(N[C@@H](C)c3nc4c(N5CC(=O)N(C)C5=O)cc(C5CC5)cn4n3)ncn2)n1 (single isomer, unassigned; isomer 2) [Example 108]	2.5 to 25
O=C(Nc1cc(NCc2nc3ccc(C4CC4)nn3n2)ncn1)[C@H]1C[C@@H]1c1cccc(Cl)c1 [Example 28, (1S,2S)-2-(3-chlorophenyl)-N-(6-(((6-cyclopropyl-[1,2,4]triazolo[1,5-b]pyridazin-2-yl)methyl)amino)pyrimidin-4-yl)cyclopropane-1-carboxamide]	> 500
O=C(Nc1cc(NCc2nc3ncc(C4CC4)cn3n2)ncn1)[C@H]1C[C@@H]1c1cccc(Cl)c1 [Example 32, (1S,2S)-2-(3-chlorophenyl)-N-(6-(((6-cyclopropyl-[1,2,4]triazolo[1,5-a]pyrimidin-2-yl)methyl)amino)pyrimidin-4-yl)cyclopropane-1-carboxamide]	2.5 to 25
O=C(Nc1cc(NCc2ccc3ncc(C4CC4)cc3c2)ccn1)[C@H]1C[C@@H]1c1cccc(Cl)c1 [Example 33, (1S,2S)-2-(3-chlorophenyl)-N-(4-(((3-cyclopropylquinolin-6-yl)methyl)amino)pyridin-2-yl)cyclopropane-1-carboxamide]	2.5 to 25
O=C(Nc1cc(NCc2cn3c(=O)n(C4CC4)ccc3n2)ccn1)[C@H]1C[C@@H]1c1cccc(Cl)c1 [Example 36, (1S,2S)-2-(3-chlorophenyl)-N-(4-(((6-cyclopropyl-5-oxo-5,6-dihydroimidazo[1,2-c]pyrimidin-2-yl)methyl)amino)pyridin-2-yl)cyclopropane-1-carboxamide]	2.5 to 25
CC(C)Oc1nccc2nc(CNc3cc(NC(=O)[C@H]4C[C@@H]4c4cccc(Cl)c4)ncn3)cn12 [Example 37, (1S,2S)-2-(3-chlorophenyl)-N-(6-(((5-isopropoxyimidazo[1,2-c]pyrimidin-2-yl)methyl)amino)pyrimidin-4-yl)cyclopropane-1-carboxamide]	> 500
O=C(Nc1cc(NCc2cn3nc(C4CC4)cc(N4CCOC4=O)c3n2)ncn1)[C@H]1C[C@@H]1c1cccc(Cl)c1 [Example 44, (1S,2S)-2-(3-chlorophenyl)-N-(6-(((6-cyclopropyl-8-(2-oxooxazolidin-3-yl)imidazo[1,2-b]pyridazin-2-yl)methyl)amino)pyrimidin-4-yl)cyclopropane-1-carboxamide]	2.5 to 25
CC(C)(C#N)Cc1cc(C2CC2)cc2cc(CNc3cc(NC(=O)[C@H]4C[C@@H]4c4cccc(Cl)c4)ncn3)nn12 [Example 55, (1S,2S)-2-(3-chlorophenyl)-N-(6-(((7-(2-cyano-2-methylpropyl)-5-cyclopropylpyrazolo[1,5-a]pyridin-2-yl)methyl)amino)pyrimidin-4-yl)cyclopropane-1-carboxamide]	2.5 to 25
CN1CCN(c2cc(C3CC3)cn3nc(CNc4cc(NC(=O)[C@H]5C[C@@H]5c5cccc(Cl)c5)ncn4)nc23)CC1 [Example 58, (1S,2S)-2-(3-chlorophenyl)-N-(6-(((6-cyclopropyl-8-(4-methylpiperazin-1-yl)-[1,2,4]triazolo[1,5-a]pyridin-2-yl)methyl)amino)pyrimidin-4-yl)cyclopropane-1-carboxamide]	2.5 to 25
CN1CCN(c2cc(Cl)cc3cc(CNc4cc(NC(=O)[C@H]5C[C@@H]5c5cccc(Cl)c5)ncn4)cnc23)CC1 [Example 59, (1S,2S)—N-(6-(((6-chloro-8-(4-methylpiperazin-1-yl)quinolin-3-yl)methyl)amino)pyrimidin-4-yl)-2-(3-chlorophenyl)cyclopropane-1-carboxamide]	2.5 to 25
CN1C(=O)CN(c2cc(C3CC3)nn3cc(CNc4cc(NC(=O)[C@H]5C[C@@H]5c5cccc(Cl)c5)ncn4)nc23)C1=O [Example 62, (S,2S)-2-(3-chlorophenyl)-N-(6-(((6-cyclopropyl-8-(3-methyl-2,4-dioxoimidazolidin-1-yl)imidazo[1,2-b]pyridazin-2-yl)methyl)amino)pyrimidin-4-yl)cyclopropane-1-carboxamide]	2.5 to 25
O=C(Nc1cc(N2C[C@@H](O)C[C@@H]2C(=O)Nc2ccc(C3CC3)cc2)ncn1)[C@H]1C[C@@H]1c1cccc(Cl)c1 [Example 64, (2R,4S)-1-(6-((1S,2S)-2-(3-chlorophenyl)cyclopropane-1-carboxamido)pyrimidin-4-yl)-N-(4-cyclopropylphenyl)-4-hydroxypyrrolidine-2-carboxamide]	> 500

Results, then the molecule that gave them:

EC50 [nM]	Compound
2.5 to 25	Cc1ccnc([C@H]2C[C@@H]2C(=O)Nc2cc(NCc3ccc(N4CC5CC5C4)nc3)ncn2)n1 (relative stereo) [Example 79, rac-(1S*,2S*)—N-(6-(((6-(3-azabicyclo[3.1.0]hexan-3-yl)pyridin-3-yl)methyl)amino)pyrimidin-4-yl)-2-(4-methylpyrimidin-2-yl)cyclopropane-1-carboxamide]
25 to 500	O=C(Nc1cc(NCc2ccc(Cn3ccccc3=O)cc2)cnn1)[C@H]1C[C@@H]1c1cccc(Cl)c1 (single isomer, unassigned) [Example 15]
< 2.5	O=C(Nc1cc(NCc2ccc(Cn3ccccc3=O)cc2)cnn1)[C@@H]1C[C@H]1c1cccc(Cl)c1 (single isomer, unassigned) [Example 16]
> 500	Cc1ccnc([C@@H]2C[C@H]2C(=O)Nc2cc(N3C[C@@H](O)C[C@@H]3c3cn4cc(C5CC5)cnc4n3)ncn2)c1 (single isomer, unassigned) [Example 74, (1S*,2S*)—N-(6-((2R,4S)-2-(6-cyclopropylimidazo[1,2-a]pyrimidin-2-yl)-4-hydroxypyrrolidin-1-yl)pyrimidin-4-yl)-2-(4-methylpyridin-2-yl)cyclopropane-1-carboxamide]
> 500	O=C(Nc1cc(OCc2ccc(Cn3cccn3)cc2)cnn1)C1CC12C(=O)Nc1ccccc12 (centres unmarked) [Example 7, N-(5-((4-((1H-pyrazol-1-yl)methyl)benzyl)oxy)pyridazin-3-yl)-2′-oxospiro[cyclopropane-1,3′-indoline]-2-carboxamide]
25 to 500	O=C(Nc1cc(NCc2nc3ccc(C4CC4)cn3n2)ncn1)[C@H]1C[C@@H]1c1cccc(Cl)c1 [Example 26, (1S,2S)-2-(3-chlorophenyl)-N-(6-(((6-cyclopropyl-[1,2,4]triazolo[1,5-a]pyridin-2-yl)methyl)amino)pyrimidin-4-yl)cyclopropane-1-carboxamide]
2.5 to 25	O=C(Nc1cc(NCc2cnc3ccc(C4CC4)cc3c2)ccn1)[C@H]1C[C@@H]1c1cccc(Cl)c1 [Example 34, (1S,2S)-2-(3-chlorophenyl)-N-(4-(((6-cyclopropylquinolin-3-yl)methyl)amino)pyridin-2-yl)cyclopropane-1-carboxamide]
25 to 500	CC(C)n1ccc2nc(CNc3cc(NC(=O)[C@H]4C[C@@H]4c4cccc(Cl)c4)ncn3)cn2c1=O [Example 38, (1S,2S)-2-(3-chlorophenyl)-N-(6-(((6-isopropyl-5-oxo-5,6-dihydroimidazo[1,2-c]pyrimidin-2-yl)methyl)amino)pyrimidin-4-yl)cyclopropane-1-carboxamide]
2.5 to 25	O=C(Nc1cc(NCc2nc3c(N4CCOC4=O)cc(C4CC4)cn3n2)ncn1)[C@H]1C[C@@H]1c1cccc(Cl)c1 [Example 43, (1S,2S)-2-(3-chlorophenyl)-N-(6-(((6-cyclopropyl-8-(2-oxooxazolidin-3-yl)-[1,2,4]triazolo[1,5-a]pyridin-2-yl)methyl)amino)pyrimidin-4-yl)cyclopropane-1-carboxamide]
2.5 to 25	CCOC(=O)CCc1cc(C2CC2)cc2cc(CNc3cc(NC(=O)[C@H]4C[C@@H]4c4cccc(Cl)c4)ncn3)nn12 [Example 47, ethyl 3-(2-(((6-((1S,2S)-2-(3-chlorophenyl)cyclopropane-1-carboxamido)pyrimidin-4-yl)amino)methyl)-5-cyclopropylpyrazolo[1,5-a]pyridin-7-yl)propanoate]
2.5 to 25	O=C(O)CCc1cc(C2CC2)cc2cc(CNc3cc(NC(=O)[C@H]4C[C@@H]4c4cccc(Cl)c4)ncn3)nn12 [Example 48, 3-(2-(((6-((1S,2S)-2-(3-chlorophenyl)cyclopropane-1-carboxamido)pyrimidin-4-yl)amino)methyl)-5-cyclopropylpyrazolo[1,5-a]pyridin-7-yl)propanoic acid]
> 500	O=C(Nc1cc(NCc2cn3c(NC4CC4)nccc3n2)ncn1)[C@H]1C[C@@H]1c1cccc(Cl)c1 [Example 50, (1S,2S)-2-(3-chlorophenyl)-N-(6-(((5-(cyclopropylamino)imidazo[1,2-c]pyrimidin-2-yl)methyl)amino)pyrimidin-4-yl)cyclopropane-1-carboxamide]
2.5 to 25	CC(C)(O)CCc1cc(C2CC2)cc2cc(CNc3cc(NC(=O)[C@H]4C[C@@H]4c4cccc(Cl)c4)ncn3)nn12 [Example 51, (1S,2S)-2-(3-chlorophenyl)-N-(6-(((5-cyclopropyl-7-(3-hydroxy-3-methylbutyl)pyrazolo[1,5-a]pyridin-2-yl)methyl)amino)pyrimidin-4-yl)cyclopropane-1-carboxamide]
> 500	CN(C(=O)[C@H]1C[C@H](O)CN1c1cc(NC(=O)[C@H]2C[C@@H]2c2cccc(Cl)c2)ncn1)c1ccc(C2CC2)cc1 [Example 65, (2R,4S)-1-(6-((1S,2S)-2-(3-chlorophenyl)cyclopropane-1-carboxamido)pyrimidin-4-yl)-N-(4-cyclopropylphenyl)-4-hydroxy-N-methylpyrrolidine-2-carboxamide]
